{"source": "patent US8455440B2", "about": "“Combination anticoagulant therapy with a compound that acts as a factor Xa inhibitor” (Millennium Pharmaceuticals, Inc., priority 2007, dated 2013)", "key": {"[1]": {"system": "systolic and diastolic blood pressure", "test": "Telemetry blood pressure in conscious beagle dogs, three way crossover", "type": "in vivo", "protocol": "The study design was a three way crossover with one week between doses to ensure complete elimination of residual agents from the dogs' circulatory system. […] Data acquisition and analysis was performed using LDS Life Science Suite Ponemah P3 plus V 4.20 software with results reported as 10 minute averages for each animal.\nAUC was derived from the systolic and diastolic baseline. […] Negative values represent a decrease in blood pressure relative to the baseline value."}, "[2]": {"test": "Plasma concentrations of Compound A in telemeterized dogs", "type": "in vivo", "settings": "combination with verapamil", "description": "It is further contemplated that in patients being treated for atrial fibrillation, blood pressure lowering drugs such as beta blockers or calcium channel blockers and Compound A may be used concomitantly. Drugs like verapamil are known inhibitors of p-glycoprotein function. […] See Example 10.\nThe study was designed to evaluate the in vivo effect of Compound A upon co-administration with a selective L type calcium channel blocker, verapamil. Three beagle dogs were implanted with Data Science Telemetry transmitters (DSI model # TL11M2-D70-PCT) to measure conscious (un-anaesthetized) and unrestrained systolic and diastolic blood pressure following oral dosing with Compound A, verapamil or a combination of the two. The study design was a three way crossover with one week between doses to ensure complete elimination of residual agents from the dogs' circulatory system. Data was analyzed for a twelve hour period, starting with one hour pre-oral dosing of Compound A and ending with eleven hours post-dosing. Data acquisition and analysis was performed using LDS Life Science Suite Ponemah P3 plus V 4.20 software with results reported as 10 minute averages for each animal."}, "[3]": {"settings": "Dog # 1, oral, Compound A 3 mg/kg, verapamil 10 mg/kg"}, "[4]": {"settings": "Dog # 2, oral, Compound A 3 mg/kg, verapamil 10 mg/kg"}, "[5]": {"settings": "Dog # 3, oral, Compound A 3 mg/kg, verapamil 10 mg/kg"}, "[6]": {"settings": "three dogs, oral, Compound A 3 mg/kg, verapamil 10 mg/kg"}}, "data": [{"smiles": "COc1ccc(NC(=O)c2ccc(C(=N)N(C)C)cc2)c(C(=O)Nc2ccc(Cl)cn2)c1", "note": "[Compound A, [2-({4-[(dimethylamino)iminomethyl]phenyl}carbonylamino)-5-methoxyphenyl]-N-(5-chloro(2-pyridyl))carboxamide]", "values": [{"measurement": "diastolic blood pressure (DBP) compared to pre-dose values", "setting": "[1]; Compound A 3 mg/kg as a single agent, oral", "result": "no statistical differences"}, {"measurement": "Lowest Diastolic Blood Pressure Post-Dosing", "setting": "[1]; [3]", "result": 92.57, "unit": "mmHg"}, {"measurement": "Lowest Systolic Blood Pressure Post-Dosing", "setting": "[1]; [3]", "result": 150.32, "unit": "mmHg"}, {"measurement": "Lowest Diastolic Blood Pressure Post-Dosing", "setting": "[1]; [4]", "result": 83.73, "unit": "mmHg"}, {"measurement": "Lowest Systolic Blood Pressure Post-Dosing", "setting": "[1]; [4]", "result": 121.08, "unit": "mmHg"}, {"measurement": "Lowest Diastolic Blood Pressure Post-Dosing", "setting": "[1]; [5]", "result": 80.52, "unit": "mmHg"}, {"measurement": "Lowest Systolic Blood Pressure Post-Dosing", "setting": "[1]; [5]", "result": 101.93, "unit": "mmHg"}, {"measurement": "Mean Area Under the Curve for Systolic Pressure (AUCP), Mean ± S.D.", "setting": "[1]; following verapamil or placebo administration ([…]), relative to baseline", "result": "782.7 ± 1297.8", "unit": "mmHg * min."}, {"measurement": "measures of blood pressure upon coadministration with verapamil", "setting": "[1]; telemeterized dogs", "result": "did not change the measures of blood pressure"}, {"measurement": "Lowest Diastolic Blood Pressure Post-Dosing, Mean ± S.D.", "setting": "[1]; [6]", "result": "85.60 ± 6.24", "unit": "mmHg"}, {"measurement": "Lowest Systolic Blood Pressure Post-Dosing, Mean ± S.D.", "setting": "[1]; [6]", "result": "124.44 ± 24.37", "unit": "mmHg"}, {"measurement": "plasma concentrations of Compound A, dual treatment versus single treatment", "setting": "[2]", "result": "about two times higher"}]}]}
